Data on two substances can be found in PMC12767106, “In Situ Assembly of Transformable Monopeptide on Activated Neutrophils Attenuates NETs‐Induced Hepatocellular Carcinoma Metastasis by Disrupting NE Nuclear Translocation” (Advanced Science, 2025).

For assay [1], the target named is T1, NE of activated neutrophils (Mus musculus, UniProt Q3UP87).
T1 construct: endogenous in cells
T1 sequence (Q3UP87 27-265): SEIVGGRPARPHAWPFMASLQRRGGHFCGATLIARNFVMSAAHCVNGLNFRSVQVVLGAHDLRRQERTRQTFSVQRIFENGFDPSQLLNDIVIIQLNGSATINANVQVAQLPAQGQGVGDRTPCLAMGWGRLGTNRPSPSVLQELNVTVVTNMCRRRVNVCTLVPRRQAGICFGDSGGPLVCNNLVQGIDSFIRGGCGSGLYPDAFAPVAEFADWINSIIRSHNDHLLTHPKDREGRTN
Put plainly: Quantitative analysis of NE activity (NETosis Assay Kit). The format is cell-based. As to conditions: activated neutrophils (PMA), 4 h, NPs 0-200 µM; FTP-NPs result stated at 50 µM. As for the experimental part: Submitted to Advanced Science
Neutrophil Elastase Activity Assay
To evaluate the distribution of active NE on the surface and inside of neutrophils, we used a kit (AkrivisBio’s Neutrophil Elastase Activity Assay, MA-0156), seeded neutrophils in confocal microscopy dishes, and then treated them with NFTP-NPs (50 µM, medium: DMSO = 99:1, v/v), FTP-NPs (50 µM, medium: DMSO = 99:1, v/v), PMA+NFTP-NPs (50 µM, medium: DMSO = 99:1, v/v), and PMA+FTP-NPs (50 µM, medium: DMSO = 99:1, v/v) at 37°C. Because the Neutrophil elastase in the kit cleaves a concrete fluorogenic substrate which releases AFC, providing intense fluorescence, 50 μl of MeOSucc-AAPV-AFC mix (Assay Buffer: MeOSucc-AAPV-AFC = 48:2) was added at 4 h, and after incubation for 1 h, the samples were examined by CLSM (LSM980, Zeiss, Germany).
Quantitative analysis of NE activity […]
DMSO = 99:1, v/v) for 4 h to obtain the solution.35,36 Quantitative analysis was carried out by a NETosis Assay Kit (Cayman Chemical, USA).
Quantitative induction analysis of NETs in vitro […]
According to the manufacturer's instructions, MPO -DNA levels in cultured supernatant were analyzed by an ELISA kit (MEIMIAN, China).38 Briefly, samples were added to each well and incubated with anti -MPO and anti-DNA antibodies for 2 h at room temperature. […] The OD value w as then measured by a microplate

The test system of a further assay is activated neutrophils. Put plainly: Retention on neutrophil membrane, flow cytometry of PpIX. It counts as cell-based, mouse. The settings on record: 50 µM, NPs washed off after 4 h, fresh medium for another 8 h.

Regarding PpIX-GFFVLK-EAIPMSIPPEVK [FTP-NPs], the “activity of NE” value in assay [1] is recorded as “almost disappeared”. The “PpIX fluorescence on activated neutrophils from 4 h to 12 h (retention)” value in the assay on activated neutrophils is recorded as “persistently strong PpIX fluorescence signals”.
“PpIX-GGGAAK-EAIPMSIPPEVK [NFTP-NPs, nanoparticles of the non-fibrillar transformable control peptide NFTP]”: the “activity of NE” value in assay [1] is recorded as “no significant effect”. In addition, the “PpIX fluorescence on activated neutrophils from 4 h to 12 h (retention)” value in the assay with activated neutrophils was “dropped sharply”.
